The values that follow come from patent US20240036050A1, “Methods Of Detecting And Treating Hepatocellular Carcinoma” (The United States Government As Represented By The …, priority 2022, published 2024).

Format in all cases: cell-based, human
Assay [1] deals with Huh-7.5 cells. The assay is described as follows: GPC3, Tsg101 and CD63 expression in HCC cells by fluorescence microscopy and Western blot. The following applies: for GPC3 and Tsg101 expression: fluorescence microscopy. The method, then: (§1) Huh7.5 cells were cultured in DMEM high glucose with 10% fetal calf serum (FBS), L-glutamine, 1 mM sodium pyruvate, and 0.1 mM non-essential amino acids with 1% penicillin and streptomycin. Huh-7.5 cells were transfected with CD63-GFP plasmid, and multiple stable cell lines expressing (Huh-7.5-CD63-GFP) were selected using G-418 (Sigma-Aldrich, St. Louis, MO) selection. Human cholangiocarcinoma cell line (HuCCA) and human embryonic kidney cell line (HEK 293) were purchased from ATCC. These two cell lines were cultured according to the instruction provided by the supplier and maintained with regular medium change every three days. Torin 1 was purchased from EMD Millipore, Burlington, MA (475991-10MG), and Bafilomycin A1 were purchased from Cell Signaling Technology, Danvers, MA (54645S). Exosome-free fetal bovine serum was purchased from ThermoFisher Waltham, MA (A2720803). Monoclonal rabbit and mouse antibodies were used as primary antibodies in western blot as well as fluorescent microscopy imaging. Anti-CD81 monoclonal rabbit—MA5-13548—and anti-glypican3 monoclonal rabbit—MA5-16368 purchased from ThermoFisher. Anti-ARF6 monoclonal rabbit—5740S—and anti-Beta actin monoclonal rabbit—4970S purchased from Cell signaling, Anti-Tsg 101 monoclonal mouse sc-7964 purchased from Santa Cruz Biotechnology.
Western blotting was performed using a standard protocol. Cultured cells were harvested by the treatment of trypsin-EDTA (Life Technologies, Carlsbad, CA, USA) at different time points and were washed twice with PBS, then lysed in ice-cold RIPA buffer (Sigma-Aldrich, St. Louis, MO, USA) with a protease inhibitor (ThermoFisher Scientific, Waltham, MA, USA) and phosphatase inhibitor cocktail (Sigma-Aldrich, St. Louis, MO, USA). The total protein content of the extract was quantified using NanoDrop™ 2000 (ThermoFisher Scientific, Waltham, MA, USA). Cell lysates (approximately 20 μg of protein) were loaded by SDS-PAGE and transferred into a nitrocellulose membrane ([…] pore size, ThermoFisher Scientific, Waltham, MA, USA). […]
For orientation: A western blot detects proteins with antibodies after separation by electrophoresis.

The test system of assay [2] is Huh-7.5 cells. In words: Exosome and microvesicle production by immuno-magnetic bead affinity flow cytometry. The conditions noted are these: 72 hours; for exosome production and GPC3 positive exosomes: CD63 beads. The procedure:
Cells were cultured in exosome-depleted medium three days before the EV analysis. Briefly, cellular debris was removed from the culture supernatant by centrifugation at 2000 g for 30 minutes. Cleared supernatants were transferred to a new tube and mixed with 0.5 volumes of total EV isolation reagent from Invitrogen Carlsbad, CA (4478359). Tubes were incubated at 40 C overnight. The following day samples were centrifuged at 10,000 g for one hour at 40 C. Carefully removed supernatant, and EV pellet was resuspended in PBS and stored at […]. EVs concentration and size distribution were determined using NanoSight (Model NTA3300 with 532 nm green laser module, Malvern, Worcestershire, UK). Biotin anti-human CD63 antibody (Clone: H5C6) was purchased from BioLegend, San Diego, CA (353018). Biotin-conjugated Annexin A1 antibody was purchased from FabGennix Frisco, TX (ANXA1-BIOTIN). Biotin conjugated heparin was purchased from Sigma-Aldrich, Saint Louis, MO (B9806-10MG). Anti-glypican-3 (sc-390587 AF488), Anti-ARF6 (sc-7971 FITC), and Anti-CD81 (sc-166029 PE) were purchased from Santa Cruz Biotechnology, Santa Cruz, CA.
Streptavidin-coated magnetic beads were purchased from Invitrogen Carlsbad, CA (10608D). Beads were prewashed in phosphate buffer saline (PBS) and then incubated with biotinylated antibodies for one hour. Antibodies to CD63 or Annexin A1 were used at a proportion of 4 μg/5 mg of beads, or biotinylated heparin was used at 100 μg/1 mg of beads. […] Following this step, the EV-bead complex was incubated with fluorescence-labeled antibodies diluted in 100 μl PBS 1% BSA for one hour at room temperature. Beads were washed in PBS 1% BSA and then analyzed on a Becton-Dickinson flow cytometer (BD FACS Celesta) using BD FACSDiva Software 6.0, San Jose, CA. […]
The bead-based assay was used to verify the production of microvesicles and exosomes by autophagy modulation. […] The impact of autophagy modulation on the production of exosomes and microvesicles was quantified by flow analysis. […] The next day captured EVs were analyzed after staining with […] by flow cytometry. […]
(A flow cytometer gives signals particle by particle.)

Assay [3] relates to CD63-GFP stable cell line (Huh-7.5-CD63-GFP). The assay is described as follows: CD63-GFP expression by fluorescence microscopy after autophagy modulation. The following applies: increasing concentrations, 72 hours. The procedure: FIGS. 5A-5D: Show impaired autophagy promotes GPC3 accumulation in exosomes. CD63-GFP stable cell line was treated with increasing concentrations of Torin1 or Bafilomycin A1 for 72 hours.
as §1, with “Anti-ARF6 monoclonal rabbit—5740S—and anti-Beta actin monoclonal rabbit—4970S purchased from Cell signaling, Anti-Tsg 101 monoclonal mouse sc-7964 purchased from Santa Cruz Biotechnology.” left out

For assay [4], the system named is HCC cell lines (Huh-7, Huh-7PX, Huh-7.5, HLE). The assay is described as follows: DQ-Red BSA endocytosis assay with Torin1 stimulation. The following applies: Torin1 200 nM. The source says:
(§2) FIGS. 9A-9H: Show Association between p62, autophagy status, and glypican 3 (GPC3) expression in HCC cell lines and normal hepatocytes. […] Scale bars=m. […] The results are expressed as the mean±standard deviation (SD). ***P<0.001. For each cell line 10 view fields were quantified. […] Scale bars=20 m. […] Scale bars=20 m.
DQ™ Red BSA (D12051, Thermo Scientific) is a fluorogenic substrate that is endocytosed in cells and traffics through early endosomes to late endosomes that then fuse with acidic hydrolase containing lysosomes. This leads to the formation of endo-lysosomes that degrade DQ-Red BSA, de-quenching the fluorescence of the dye attached to this cargo, therefore, produces bright red spots in endo-lysosomes. Equal number of cells was seeded in 6-well plate. Then, untreated and Torin1-treated live cells were incubated with DQ-Red BSA for one hour. After washing cells with PBS, cells were fixed with 4% paraformaldehyde and counterstained with Hoechst 33342 (H3570, Thermo Scientific). Cells were examined using fluorescent microscopy.
Next, it was confirmed whether HCC cell lines and non-transformed primary hepatocytes could recapitulate impaired autophagy and increased GPC3 expression specific to HCC. A panel of 6 HCC cell lines was examined for p62 expression levels compared to primary human hepatocytes (PHH) using immunocytochemistry (FIG. 9A). […]

Assay [5] concerns autophagy-deficient HCC lines (Huh-7, Huh-7PX, Huh-7.5). The assay is described as follows: p62 degradation by Western blot after Torin1 treatment.
Text: as §2
PHHs or HCC cells were immobilized on glass slides and stained for p62 and glypican 3 by immunostaining. Exosomes and adherent cells were separated isolated from the cultures and lysates (20 μg of protein) prepared and examined for expression of p62, glypican 1, glypican 3 and exosome markers, CD9, TSG101 by SDS-PAGE electrophoresis and Western blotting. Cells were lysed in ice-cold lysis buffer (50 mM Tris HCl pH 8.0, 140 mM NaCl, 1.5 mM MgCl2, 0.5% NP-40 with complete protease inhibitor from Invitrogen) for 10 minutes in ice (about 1×10^6 cells/200 μL). Cells pelleted by low-speed centrifugation. The detergent compatible (DC) protein assay determined protein concentration. Samples were boiled for 10 minutes at 80° C. in the presence of 1× sodium dodecyl sulfate-polyacrylamide gel electrophoresis (SDS-PAGE)-loading buffer (250 mM Tris-HCl pH 6.8, 40% glycerol, 8% SDS, 0.57M β-mercaptoethanol, 0.12% bromophenol blue). Approximately 20 μg of protein was loaded onto 12% SDS-PAGE and transferred into a nitrocellulose membrane (LC2001 Thermo Scientific). […]

As to `CO/C1=C\C(C)=C\[C@@H](C)[C@@H](O)[C@@H](C)C/C(C)=C/C=C/[C@H](OC)[C@@H]([C@@H](C)[C@@H](O)[C@H](C)[C@@]2(O)C[C@@H](O)[C@H](C)[C@@H](C(C)C)O2)OC1=O` [Bafilomycin A1], in the assay with Huh-7.5 cells [1], the “GPC3 and Tsg101 expression” value is “accumulates GPC3 expression”. Also, in the assay with Huh-7.5 cells [2], the “exosome production and GPC3 positive exosomes” value is “increased exosome release and glypican-positive exosomes”. Moreover, the CD63-GFP expression entry in assay [3] is given as “induced its expression”.

With `CCC(=O)N1CCN(c2ccc(-n3c(=O)ccc4cnc5ccc(-c6cnc7ccccc7c6)cc5c43)cc2C(F)(F)F)CC1` [Torin1], the DQ-BSA fluorescence signal result in assay [4] (autophagy-deficient HCC lines (Huh-7, Huh-7PX, Huh-7.5)) is listed as “could only be induced following Torin1 treatment”; in assay [4] (autophagy-sufficient HLE cells) it was “increased”. In the assay with Huh-7.5 cells [1], the “GPC3 and Tsg101 expression” value is “degrades GPC3 and Tsg101”. Further, the “GPC3 and CD63 levels by Western blot” value in the assay with Huh-7.5 cells [1] (two concentrations, 72 hours) was “leads to GPC3 and CD63 degradation”. The ARF6 positive microvesicles entry in the assay with Huh-7.5 cells [2] (Annexin A1 beads) is on record as “promote ARF6 positive microvesicles”. The “exosome production and GPC3 positive exosomes” value in the assay on Huh-7.5 cells [2] was “decreased total exosome production and glypican3 positive exosomes”. Also, in assay [5], the p62 levels entry is reported as “decreased p62 levels”. In addition, in assay [3], the CD63-GFP expression result was “degrades CD63-GFP chimera protein”.
